Reference: patent US5677297A, “Benzazepine-, benzoxazepine- and benzothiazepine-n-acetic acid derivatives, process for their preparation and pharmaceutical compositions containing them” (Solvay Pharmaceuticals GmbH, priority 1995, dated 1997)

Assays:
[1] = target: T1, endothelin-converting enzyme (ECE) (Homo sapiens, UniProt P42892); experiment: In vitro investigation of the ECE-inhibitory effect (recombinant human ECE in CHO cell membrane fraction); type: biochemical; conditions: 24 μM synthetic peptide substrate, pH 7.0, 37° C., 60 min
T1 construct: expressed in transfected cells; host or cells: CHO cells (Chinese hamster ovary), membrane fraction
T1 sequence (P42892 1-770): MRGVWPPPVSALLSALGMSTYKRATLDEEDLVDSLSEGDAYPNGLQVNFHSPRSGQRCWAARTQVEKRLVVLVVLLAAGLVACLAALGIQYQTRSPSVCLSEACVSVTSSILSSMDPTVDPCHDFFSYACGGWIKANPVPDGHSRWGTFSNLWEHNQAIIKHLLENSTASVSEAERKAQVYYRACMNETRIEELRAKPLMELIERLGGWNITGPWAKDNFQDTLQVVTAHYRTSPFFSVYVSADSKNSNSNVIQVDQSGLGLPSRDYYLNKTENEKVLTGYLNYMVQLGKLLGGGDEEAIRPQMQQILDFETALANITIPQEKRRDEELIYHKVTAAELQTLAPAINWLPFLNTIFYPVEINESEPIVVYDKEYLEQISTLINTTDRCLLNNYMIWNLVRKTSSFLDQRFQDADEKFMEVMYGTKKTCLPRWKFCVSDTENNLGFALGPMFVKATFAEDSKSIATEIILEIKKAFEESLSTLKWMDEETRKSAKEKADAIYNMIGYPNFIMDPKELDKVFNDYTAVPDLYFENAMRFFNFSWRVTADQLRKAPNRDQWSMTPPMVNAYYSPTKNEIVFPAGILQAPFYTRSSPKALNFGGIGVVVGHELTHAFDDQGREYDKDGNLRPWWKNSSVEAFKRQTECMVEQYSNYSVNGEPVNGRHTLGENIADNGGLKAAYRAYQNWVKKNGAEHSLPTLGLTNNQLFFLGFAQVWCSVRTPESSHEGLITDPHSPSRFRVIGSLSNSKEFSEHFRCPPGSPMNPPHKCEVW
Experimental: 3. In vitro investigations of the ECE-inhibitory effect of the substances.
The IC50 of the substances was determined as a measure of their inhibitory activity. The IC50 of a test substance with enzyme-inhibiting activity is the concentration of the test substance at which 50% of the enzymatic activity of ECE is inhibited.
Preparation of the ECE-containing endothelial cell membrane fraction.
Egg cells from the Chinese hamster (Chinese hamster ovary cells, hereinafter CHO cells) in which there was recombinant expression of human ECE [see Schmidt et al., Federation of European Biochemical Societies Letters 356 238-43 (1994)] were lysed, and the cell membranes were removed by centrifugation at 10,000×g for 10 min. The cell membranes were washed by resuspension and repeated centrifugation three times. The ECE-containing cell membrane fraction was resuspended in 100 mM tris/HCl buffer (tris(hydroxymethyl)aminomethane/HCl, pH 7.0, containing 250 mM NaCl) and stored frozen at -70° C. before the enzyme test.
To carry out the test, respective 100 μl samples of various incubation solutions each containing 5 μg protein from an ECE-containing preparation of endothelial cell membranes and different amounts of test substance and 24 μM substrate (synthetic peptide: H2 N-Asp-Ile-Ala-Trp-Phe-Asn-Thr-Pro-Glu-His-Val-Val-Pro-Tyr-Gly-Leu-Gly-COOH) (SEQ ID NO:1) and 100 mM tris buffer (tris(hydroxymethyl)aminomethane/HCl, pH 7.0, containing 250 mM sodium chloride) were prepared. […]
The incubation solutions were preincubated at 37° C. for 15 min before the substrate was added. […] The hydrolysis products H2N-Asp-Ile-Ala-Trp-COOH (SEQ ID NO:2) and H2 N-Phe-Asn-Thr-Pro-Glu-His-Val-Val-Pro-Tyr-Gly-Leu-Gly-COOH (SEQ ID NO:3) formed from the substrate by the enzymatic reaction were determined with the aid of high-pressure liquid chromatography (HPLC). […] The IC50 was calculated for each test substance in a known manner from the concentrations of hydrolysis products measured in the various samples.

[2] = design: species or system mouse (male); conditions: mouse, in vivo, po, 4320 min
Experimental: 1. Determination of the minimum toxic dose
Male mice weighing 20-25 g received oral administrations of maximum doses of 300 mg/kg of the test substance. The animals were carefully observed for signs of toxicity for 3 hours. In addition, all signs and deaths over a period of 72 hours after administration were recorded. Accompanying signs were likewise observed and recorded. If death or signs of severe toxicity were observed, further mice were given increasingly lower doses until signs of toxicity no longer appeard. The lowest dose which caused death or signs of severe toxicity is indicated in following Table A as the minimum toxic dose. The example numbers listed in Table A refer to the following preparation examples.

[3] = target: neutral endopeptidase (NEP), purified NEP (E.C.3.4.24.11) (Homo sapiens, UniProt P08473); experiment: In vitro investigation of the NEP-inhibitory effect (hydrolytic degradation of met-enkephalin); type: biochemical; conditions: substrate met-enkephalin, 37° C., pH 7.4
Experimental: 2. In vitro investigation of the NEP-inhibitory effect of the substances and determination of the affinity of the substance molecules for the enzyme molecule. […] The Ki (inhibitor constant) of each substance was determined as a measure of its inhibitory activity. The Ki of a test substance with enzyme-inhibiting activity is the dissociation constant for the enzyme/test substance complex or the (enzyme/substrate)--test substance complex and has units of concentration.
To carry out the test, respective 100 μl samples of various incubation solutions containing 10 ng of purified NEP (E.C.3.4.24.11) and in each case different amounts of test substance and of substrate (met-enkephalin)and 50 mM tris buffer (=tris(hydroxymethyl)aminomethane/HCl, pH 7.4) were prepared.
For each test substance, 24 different incubation solutions were prepared with 3 different test substance concentrations respectively combined with met-enkephalin contents of 2, 5, 7, 10, 12, 15, 40 and 100 μm.
In each test, two types of control incubation solutions were also processed, on the one hand enzyme controls which contain no test substance, and on the other hand substrate controls which contain neither enzyme nor test substance.
The incubation solutions were incubated in a shaking water bath at 37° C. for 45 minutes. The enzyme reaction was started after 15 minutes by adding the substrate (metenkephalin) and was stopped at the end of the incubation time by heating at 95° C. for 5 minutes. The stopped incubation solution was then centrifuged at 12,000×g for 3 minutes, and the concentrations of unreacted substrate and of hydrolysis products formed by the enzymatic reaction were determined in the supernatant. For this purpose, samples of each of the respective supernatants were fractionated by HPLC (high-pressure liquid chromatography) on hydrophobized silica gel, and the products of the enzymatic reaction and unreacted substrate were determined by photometry at a wavelength of 205 nm. The HPLC separation was carried out using a column (4.6×250 mm) which contains Encapharm™ 100 RP18 having an average particle size of 5 μm as reversed phase separation material. The solvent flow rate was 1.4 ml/min, and the column was warmed to 40° C. Mobile phase A was 5 mM H3 PO4, pH 2.5, and mobile phase B was acetonitrile +1% 5 mM H3 PO4, pH 2.5.
The Ki for each test substance was calculated in a known manner from the concentrations of hydrolysis products and unreacted substrate measured in the various samples. […] The example numbers indicated in Table B refer to the following preparation examples.

[4] = In vivo determination of the effect on diuresis/natriuresis in volume-loaded rats; design: species or system rat (male Wistar); conditions: volume loading 120 minutes after administration, urine collected over 60 min
Experimental: 4. In vivo determination of the effect of the substances on diuresis/natriuresis in volume-loaded rats.
The in vivo activity was investigated in volume-loaded rats. In this experiment a high cardiac filling pressure was caused by infusion of isotonic sodium chloride solution, which results in ANP release and thus diuresis/natriuresis.
The tests are carried out with male Wistar rats having a body weight of 200-400 g. Under neuroleptanalgesia (fentanyl; Hypnorm™, manufactured by Janssen), a catheter was placed in the right femoral vein for the baseline infusion and the volume loading with isotonic sodium chloride solution. After the abdominal cavity had been opened, a second catheter was inserted into the bladder, and the urethra was tied off so that it was possible to measure the urine volume, natriuresis and kaliuresis.
The abdominal cavity was closed again and the animals received a continuous infusion with sodium chloride solution (0.5 ml/100 g body weight) throughout the 2 hours of the test. After an equilibration period of 30 minutes, in a preliminary phase before the test substance was given, urine samples were collected three times over a period of 10 minutes in each case. These preliminary values ("predrug" values) were determined in order to check that there was a continuous flow of urine in the test animals.
The solutions containing test substances were then administered intravenously (bolus injection into the femoral vein) or orally (by gavage) to groups of 10 rats each. With both modes of administration, in each case one control group of animals received only placebo solutions which contained no active substance. 5 Minutes after i.v. administration or 120 minutes after oral administration of the substances, the rats were loaded with an increased volume of sodium chloride solution i.v. (2 ml/100 g body weight in 2 minutes) and the urine was collected over a period of 60 min. The amounts of urine produced in this period were determined, and the sodium and potassium contents therein were measured. The increase in excretion which took place under volume loading by comparison with the preliminary values was deduced from the resulting amounts of urine.
Furthermore, the amounts of sodium and potassium excreted under volume loading after administration of test substance are also indicated as a percentage of the amounts of sodium and potassium excreted under volume loading after placebo administration.

neutral endopeptidase (NEP), purified NEP (E.C.3.4.24.11), sequence (P08473 whole entry): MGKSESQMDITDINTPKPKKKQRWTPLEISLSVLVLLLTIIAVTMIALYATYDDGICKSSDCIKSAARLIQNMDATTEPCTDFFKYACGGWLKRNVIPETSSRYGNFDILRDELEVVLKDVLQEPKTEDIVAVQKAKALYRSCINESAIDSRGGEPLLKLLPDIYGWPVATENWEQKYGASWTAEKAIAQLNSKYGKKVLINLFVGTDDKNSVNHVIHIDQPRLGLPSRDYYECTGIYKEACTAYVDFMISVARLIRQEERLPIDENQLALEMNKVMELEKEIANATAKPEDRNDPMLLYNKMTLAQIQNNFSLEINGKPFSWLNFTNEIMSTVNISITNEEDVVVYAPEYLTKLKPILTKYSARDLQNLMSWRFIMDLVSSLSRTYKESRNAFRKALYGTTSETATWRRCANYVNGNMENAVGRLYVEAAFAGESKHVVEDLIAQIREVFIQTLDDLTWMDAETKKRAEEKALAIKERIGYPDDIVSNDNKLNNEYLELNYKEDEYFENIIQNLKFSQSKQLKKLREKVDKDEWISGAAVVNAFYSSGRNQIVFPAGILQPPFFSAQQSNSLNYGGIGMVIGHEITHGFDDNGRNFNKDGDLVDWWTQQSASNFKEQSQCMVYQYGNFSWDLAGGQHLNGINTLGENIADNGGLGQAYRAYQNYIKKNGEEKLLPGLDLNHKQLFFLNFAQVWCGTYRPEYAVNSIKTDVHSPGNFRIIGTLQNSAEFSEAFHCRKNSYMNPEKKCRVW

## O=C(O)CN1C(=O)[C@@H](NC(=O)C2(C[C@@H](CCc3cccc4ccccc34)C(=O)O)CCCC2)CCc2ccccc21 [Example 39]
[1]
  IC50: 520 nM

## O=C(O)CN1C(=O)C(NC(=O)C2(CC(Cc3ccccc3)C(=O)O)CCCC2)CCc2ccccc21 (stereo not drawn) [Example 27]
[2]
  Minimum toxic dose: > 300 mg/kg

## O=C(O)CN1C(=O)C(NC(=O)C2(CC(CCOc3ccc(F)cc3)C(=O)O)CCCC2)CCc2ccccc21 (stereo not drawn) [Example 26]
[3]
  Ki: 1.22 nM

## CCOC(=O)[C@H](CCc1ccccc1)CC1(C(=O)N[C@H]2CCc3ccccc3N(CC(=O)O)C2=O)CCCC1 [Example 4, (3S,2'R)-3-{1-[2'-(Ethoxycarbonyl)-4'-phenylbutyl]cyclopentane-1-carbonylamino}-2,3,4,5-tetrahydro-2-oxo-1H-1-benzazepine-1-acetic acid]
[4]; 15 mg/kg p.o.
  Increase in the excretion of urine under volume loading after administration of test substance as % based on the increase after placebo administration: 196.5%
[4]; 51 mg/kg p.o.
  Increase in the excretion of urine under volume loading after administration of test substance as % based on the increase after placebo administration: 271%

## COCCOC[C@H](CC1(C(=O)N[C@H]2COc3ccccc3N(CC(=O)O)C2=O)CCCC1)C(=O)O [Example 11, (3S,2'S)-3-{1-[2'-Carboxy-3'-(2-methoxyethoxy)propyl]cyclopentane-1-carbonylamino}-4-oxo-3,4-dihydro-1,5-benzoxazepine-5(2H)-acetic acid]
[3]
  Ki: 2.55 nM

## COCCOC[C@H](CC1(C(=O)N[C@H]2CCc3ccccc3N(CC(=O)O)C2=O)CCCC1)C(=O)O [Example 22]
[3]
  Ki: 2.15 nM

## O=C(O)CN1C(=O)[C@@H](NC(=O)C2(C[C@@H](CCc3ccccc3)C(=O)O)CCCC2)CCc2ccccc21 [Example 37]
[2]
  Minimum toxic dose: > 300 mg/kg

## O=C(O)CN1C(=O)[C@@H](NC(=O)C2(CC(CCOc3ccc(F)cc3)C(=O)O)CCCC2)CSc2ccccc21 (stereo partly drawn) [Example 13, (3R)-3-{1-[2'-Carboxy-4'-(4-fluorophenoxy)butyl]cyclopentane-1-carbonylamino}-4-oxo-3,4-dihydro-1,5-benzothiazepine-5(2H)-acetic acid]
[3]
  Ki: 0.76 nM

## O=C(O)CN1C(=O)[C@@H](NC(=O)C2(CC(Cc3ccccc3)C(=O)O)CCCC2)CCc2ccccc21 (stereo partly drawn) [Example 29]
[3]
  Ki: 1.08 nM

## O=C(O)CN1C(=O)C(NC(=O)C2(CC(Cc3cccc4ccccc34)C(=O)O)CCCC2)CCc2ccccc21 (stereo not drawn) [Example 38]
[1]
  IC50: 2200 nM

## O=C(O)CN1C(=O)C(NC(=O)C2(CC(CCc3ccccc3)C(=O)O)CCCC2)CCc2ccccc21 (stereo not drawn) [Example 6, 3-[1-(2'-Carboxy-4'-phenylbutyl)cyclopentane-1-carbonylamino]-2,3,4,5-tetrahydro-2-oxo-1H-1-benzazepine-1-acetic acid]
[3]
  Ki: 0.67 nM
[2]
  Minimum toxic dose: > 300 mg/kg

## O=C(O)CN1C(=O)C(NC(=O)C2(CC(CCc3cccc4ccccc34)C(=O)O)CCCC2)CCc2ccccc21 (stereo not drawn) [Example 24]
[3]
  Ki: 1 nM
[2]
  Minimum toxic dose: > 300 mg/kg
